From paper PMC6940514 (Angewandte Chemie (International ed. in English), 2019)

Assays:
[1] = system: S. pneumoniae; experiment: Antibacterial activity; format: cell-based; conditions: Streptococcus pneumoniae
[2] = system: S. pyogenes; experiment: Antibacterial activity; format: cell-based; conditions: Streptococcus pyogenes
[3] = system: Gram-negative bacteria; conditions: general statement, no reference given; cited from earlier work

In the case of C=C(NC(=O)C(=C)NC(=O)c1csc(C2=N[C@@H]3c4csc(n4)[C@H]4NC(=O)c5csc(n5)[C@H]([C@](C)(O)[C@@H](C)O)NC(=O)[C@H]5CSC(=N5)/C(=C/C)NC(=O)[C@H]([C@@H](C)O)NC(=O)c5csc(n5)[C@]3(CC2)NC(=O)[C@H](C)NC(=O)C(=C)NC(=O)[C@H](C)NC(=O)[C@H]([C@@H](C)CC)N[C@@H]2C=Cc3c([C@H](C)O)cc(nc3[C@H]2O)C(=O)O[C@@H]4C)n1)C(N)=O [Compound 1, Thiostrepton], the MIC [1] is given as under 1 ng/mL, the MIC [2] is given as under 1 ng/mL and the “activity against Gram-negative bacteria” value [3] is given as “inactive”.
